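A five-concentration, 48-hour dose response in 96-well plates underlies each endpoint, interpolated linearly between surrounding concentrations. GI50 is the concentration that inhibits growth by half.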 Active and inactive are the calls of the source. Cut-off read from the data, not from the text of the source: active = GI50 up to about 1.1 µM and inactive = higher.
Tests used:
Experiment in all cases: growth of human tumour cells (NCI), 48 h
A549 = tested on: A549
CAKI-1 = tested on: CAKI-1
CCRF-CEM = tested on: CCRF-CEM
HCC 2998 = tested on: HCC 2998
HOP-62 = tested on: HOP-62
K562 = tested on: K562
M14 = tested on: M14
OVCAR-4 = tested on: OVCAR-4
OVCAR-8 = tested on: OVCAR-8
RXF 393 = tested on: RXF 393
SF-295 = tested on: SF-295
SK-MEL-28 = tested on: SK-MEL-28
SK-OV-3 = tested on: SK-OV-3
SN12C = tested on: SN12C
SNB-19 = tested on: SNB-19
SNB-75 = tested on: SNB-75
SW-620 = tested on: SW-620
U-251 = tested on: U-251
UACC-257 = tested on: UACC-257
UO-31 = tested on: UO-31

Structure (SMILES)	GI50 (A549)	GI50 (CAKI-1)	GI50 (CCRF-CEM)	GI50 (HCC 2998)	GI50 (HOP-62)	GI50 (K562)	GI50 (M14)	GI50 (OVCAR-4)	GI50 (OVCAR-8)	GI50 (RXF 393)	GI50 (SF-295)	GI50 (SK-MEL-28)	GI50 (SK-OV-3)	GI50 (SN12C)	GI50 (SNB-19)	GI50 (SNB-75)	GI50 (SW-620)	GI50 (U-251)	GI50 (UACC-257)	GI50 (UO-31)
Oc1ccc(NCn2c(=S)sc3ccccc32)cc1	> 100 µM (inactive)	> 100 µM (inactive)	32 µM (inactive)	> 100 µM (inactive)	> 100 µM (inactive)	22.3 µM (inactive)	> 100 µM (inactive)	91 µM (inactive)	> 100 µM (inactive)	> 100 µM (inactive)	> 100 µM (inactive)	> 100 µM (inactive)	> 100 µM (inactive)	> 100 µM (inactive)	> 100 µM (inactive)	54.8 µM (inactive)	42.7 µM (inactive)	> 100 µM (inactive)	> 100 µM (inactive)	89.9 µM (inactive)
COc1ccc(OC)c(SC(CC(=O)c2ccccc2)c2ccccc2)c1 (centres undefined)	27.9 µM (inactive)	13.9 µM (inactive)	5.08 µM (inactive)	17.5 µM (inactive)	20.9 µM (inactive)	4.91 µM (inactive)	16.7 µM (inactive)	61.4 µM (inactive)	11.3 µM (inactive)	15.8 µM (inactive)	15.2 µM (inactive)	17.5 µM (inactive)	20 µM (inactive)	17.9 µM (inactive)	14.2 µM (inactive)	18.4 µM (inactive)	3.73 µM (inactive)	10.2 µM (inactive)	15.9 µM (inactive)	12.1 µM (inactive)
COC(=O)c1ccccc1/N=C(/NC1CCCCCC1)NS(=O)(=O)c1ccc(C)cc1	> 100 µM (inactive)	74.5 µM (inactive)	> 100 µM (inactive)	> 100 µM (inactive)	99.3 µM (inactive)	> 100 µM (inactive)	> 100 µM (inactive)	> 100 µM (inactive)	> 100 µM (inactive)	> 100 µM (inactive)	26.4 µM (inactive)	> 100 µM (inactive)	> 100 µM (inactive)	> 100 µM (inactive)	> 100 µM (inactive)	> 100 µM (inactive)	> 100 µM (inactive)	> 100 µM (inactive)	> 100 µM (inactive)	> 100 µM (inactive)
COc1cccc2c1C(=O)c1c(O)c3c(c(O)c1C2=O)C[C@@](O)(C(=O)CO)C[C@@H]3OC1CC(N2CCOCC2)C(O)C(C)O1 (some centres undefined)	0.00628 µM (active)	0.00948 µM (active)	0.00323 µM (active)	0.0127 µM (active)	0.0199 µM (active)	0.0025 µM (active)	0.0324 µM (active)	0.0201 µM (active)	0.0025 µM (active)	0.00396 µM (active)	0.0025 µM (active)	0.0027 µM (active)	0.00292 µM (active)	0.0156 µM (active)	0.0025 µM (active)	0.0025 µM (active)	0.00791 µM (active)	0.0025 µM (active)	0.00267 µM (active)	0.0025 µM (active)
COC(=O)[C@@H]1C=C[C@H](NC(C)=O)C1	–	> 100 µM (inactive)	> 100 µM (inactive)	> 100 µM (inactive)	> 100 µM (inactive)	> 100 µM (inactive)	> 100 µM (inactive)	> 100 µM (inactive)	> 100 µM (inactive)	> 100 µM (inactive)	> 100 µM (inactive)	> 100 µM (inactive)	> 100 µM (inactive)	> 100 µM (inactive)	> 100 µM (inactive)	> 100 µM (inactive)	> 100 µM (inactive)	> 100 µM (inactive)	> 100 µM (inactive)	> 100 µM (inactive)

From ChEMBL document CHEMBL1201862, “PubChem BioAssay data set” (2004)
